Measured values as given in publication doi:10.1101/2020.02.18.954925v1 (biorxiv, 2020).

Target: Lpg2603 10-C (Legionella pneumophila, UniProt Q5ZSB6)
Assay: biochemical

Lpg2603 10-C, sequence (Q5ZSB6 10-434 limits assumed): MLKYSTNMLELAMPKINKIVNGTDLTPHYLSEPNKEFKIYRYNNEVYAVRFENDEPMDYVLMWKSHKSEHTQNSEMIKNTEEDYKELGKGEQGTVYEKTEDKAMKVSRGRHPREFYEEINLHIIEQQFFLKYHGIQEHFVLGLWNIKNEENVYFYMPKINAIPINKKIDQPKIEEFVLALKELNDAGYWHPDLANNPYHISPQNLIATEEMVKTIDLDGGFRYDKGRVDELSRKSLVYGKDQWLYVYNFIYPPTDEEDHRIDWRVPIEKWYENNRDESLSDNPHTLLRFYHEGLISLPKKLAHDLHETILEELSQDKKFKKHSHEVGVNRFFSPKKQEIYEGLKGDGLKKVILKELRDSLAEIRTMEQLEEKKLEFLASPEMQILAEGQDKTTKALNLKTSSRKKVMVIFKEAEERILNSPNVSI

O=P(O)(O)O[C@H]1[C@H](OP(=O)(O)O)[C@@H](OP(=O)(O)O)[C@H](OP(=O)(O)O)[C@@H](OP(=O)(O)O)[C@H]1OP(=O)(O)O [inositol hexakisphosphate]
Kd: ~315 µM
